Reference: article PMC8843100, “Development of newly synthesised quinazolinone-based CDK2 inhibitors with potent efficacy against melanoma” (Journal of Enzyme Inhibition and Medicinal Chemistry, 2022)

What was measured:
[1] = system: OVCAR-3; test: NCI-60 single dose screen, sulforhodamine B; type: cell-based, human; conditions: Ovarian cancer OVCAR-3; single dose 10^−5 M
Procedure, shortened: (§1)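 Sulforhodamine B staining after 2 days' exposure to compound at 10^−5 M, given one day after seeding. Values are growth inhibition relative to untreated and time-zero plates, so cell kill and net growth inhibition can be distinguished.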

[2] = system: UACC-257; test: NCI-60 single dose screen, sulforhodamine B; type: cell-based, human; conditions: Melanoma UACC-257; single dose 10^−5 M
Procedure, shortened: as §1

[3] = system: HS 578T; test: NCI-60 single dose screen, sulforhodamine B; type: cell-based, human; conditions: Breast cancer HS 578T; single dose 10^−5 M
Procedure, shortened: as §1

[4] = system: HOP-92; test: NCI-60 single dose screen, sulforhodamine B; type: cell-based, human; conditions: Non-small cell lung cancer HOP-92; single dose 10^−5 M
Procedure, shortened: as §1

[5] = system: SF-539; test: NCI-60 single dose screen, sulforhodamine B; type: cell-based, human; conditions: CNS cancer SF-539; single dose 10^−5 M
Procedure, shortened: as §1

[6] = system: SK-MEL-5; test: NCI-60 single dose screen, sulforhodamine B; type: cell-based, human; conditions: Melanoma SK-MEL-5; single dose 10^−5 M
Procedure, shortened: as §1

[7] = system: NCI/ADR-RES; test: NCI-60 single dose screen, sulforhodamine B; type: cell-based, human; conditions: Ovarian cancer NCI/ADR-RES; single dose 10^−5 M
Procedure, shortened: as §1

[8] = system: NCI-H460; test: NCI-60 single dose screen, sulforhodamine B; type: cell-based, human; conditions: Non-small cell lung cancer NCI-H460; single dose 10^−5 M
Procedure, shortened: as §1

[9] = system: COLO 205; test: NCI-60 single dose screen, sulforhodamine B; type: cell-based, human; conditions: Colon cancer COLO 205; single dose 10^−5 M
Procedure, shortened: as §1

[10] = system: UACC-62; test: NCI-60 single dose screen, sulforhodamine B; type: cell-based, human; conditions: Melanoma UACC-62; single dose 10^−5 M
Procedure, shortened: as §1

[11] = system: RXF 393; test: NCI-60 single dose screen, sulforhodamine B; type: cell-based, human; conditions: Renal cancer RXF 393; single dose 10^−5 M
Procedure, shortened: as §1

[12] = system: UO-31; test: NCI-60 single dose screen, sulforhodamine B; type: cell-based, human; conditions: Renal cancer UO-31; single dose 10^−5 M
Procedure, shortened: as §1

[13] = system: OVCAR-4; test: NCI-60 single dose screen, sulforhodamine B; type: cell-based, human; conditions: Ovarian cancer OVCAR-4; single dose 10^−5 M
Procedure, shortened: as §1

[14] = system: BT-549; test: NCI-60 single dose screen, sulforhodamine B; type: cell-based, human; conditions: Breast cancer BT-549; single dose 10^−5 M
Procedure, shortened: as §1

[15] = system: SF-268; test: NCI-60 single dose screen, sulforhodamine B; type: cell-based, human; conditions: CNS cancer SF-268; single dose 10^−5 M
Procedure, shortened: as §1

[16] = system: MALME-3M; test: NCI-60 single dose screen, sulforhodamine B; type: cell-based, human; conditions: Melanoma MALME-3M; single dose 10^−5 M
Procedure, shortened: as §1

[17] = system: A498; test: NCI-60 single dose screen, sulforhodamine B; type: cell-based, human; conditions: Renal cancer A498; single dose 10^−5 M
Procedure, shortened: as §1

[18] = system: 786-0; test: NCI-60 single dose screen, sulforhodamine B; type: cell-based, human; conditions: Renal cancer 786-0; single dose 10^−5 M
Procedure, shortened: as §1

[19] = system: CCRF-CEM; test: NCI-60 single dose screen, sulforhodamine B; type: cell-based, human; conditions: Leukaemia CCRF-CEM; single dose 10^−5 M
Procedure, shortened: as §1

[20] = system: HOP-62; test: NCI-60 single dose screen, sulforhodamine B; type: cell-based, human; conditions: Non-small cell lung cancer HOP-62; single dose 10^−5 M
Procedure, shortened: as §1

[21] = system: CAKI-1; test: NCI-60 single dose screen, sulforhodamine B; type: cell-based, human; conditions: Renal cancer CAKI-1; single dose 10^−5 M
Procedure, shortened: as §1

[22] = system: EKVX; test: NCI-60 single dose screen, sulforhodamine B; type: cell-based, human; conditions: Non-small cell lung cancer EKVX; single dose 10^−5 M
Procedure, shortened: as §1

[23] = system: SK-MEL-2; test: NCI-60 single dose screen, sulforhodamine B; type: cell-based, human; conditions: Melanoma SK-MEL-2; single dose 10^−5 M
Procedure, shortened: as §1

Compound	GI% at 10^−5 M [1]	GI% at 10^−5 M [2]	GI% at 10^−5 M [3]	GI% at 10^−5 M [5]	GI% at 10^−5 M [6]	GI% at 10^−5 M [7]	GI% at 10^−5 M [8]	GI% at 10^−5 M [9]	GI% at 10^−5 M [10]	GI% at 10^−5 M [11]	GI% at 10^−5 M [13]	GI% at 10^−5 M [14]	GI% at 10^−5 M [15]	GI% at 10^−5 M [16]	GI% at 10^−5 M [17]	GI% at 10^−5 M [18]	GI% at 10^−5 M [19]	GI% at 10^−5 M [20]	GI% at 10^−5 M [21]	GI% at 10^−5 M [22]	further results
O=C(CNn1c(COc2ccccc2)nc2ccccc2c1=O)Nc1ccccc1 [Compound 4a, 2-((4-oxo-2-(phenoxymethyl)quinazolin-3(4H)-yl)amino)-N-phenylacetamide]	– (– means GI < 10%)	– (– means GI < 10%)	11.86%	– (– means GI < 10%)	– (– means GI < 10%)	– (– means GI < 10%)	– (– means GI < 10%)	– (– means GI < 10%)	– (– means GI < 10%)	– (– means GI < 10%)	– (– means GI < 10%)	– (– means GI < 10%)	– (– means GI < 10%)	– (– means GI < 10%)	– (– means GI < 10%)	– (– means GI < 10%)	– (– means GI < 10%)	13.59%	12.78%	14.38%	GI% at 10^−5 M [4]: 15.94%; GI% at 10^−5 M [12]: 21.57%; GI% at 10^−5 M [23]: – (– means GI < 10%); melting point: 135 to 137 °C
COc1ccc(NC(=O)CNn2c(COc3ccccc3)nc3ccccc3c2=O)cc1 [Compound 4b, N-(4-methoxyphenyl)-2-((4-oxo-2-(phenoxymethyl)quinazolin-3(4H)-yl)amino)acetamide]	– (– means GI < 10%)	– (– means GI < 10%)	– (– means GI < 10%)	– (– means GI < 10%)	– (– means GI < 10%)	– (– means GI < 10%)	– (– means GI < 10%)	– (– means GI < 10%)	– (– means GI < 10%)	– (– means GI < 10%)	– (– means GI < 10%)	– (– means GI < 10%)	– (– means GI < 10%)	– (– means GI < 10%)	34.65%	– (– means GI < 10%)	– (– means GI < 10%)	12.71%	21.63%	10.17%	GI% at 10^−5 M [4]: 16.34%; GI% at 10^−5 M [12]: 15.77%; GI% at 10^−5 M [23]: – (– means GI < 10%); melting point: 146 to 148 °C
O=C(CNn1c(COc2ccccc2)nc2ccccc2c1=O)Nc1ccc(Cl)cc1 [Compound 4c, N-(4-chlorophenyl)-2-((4-oxo-2-(phenoxymethyl)quinazolin-3(4H)-yl)amino)acetamide]	– (– means GI < 10%)	– (– means GI < 10%)	19.01%	– (– means GI < 10%)	– (– means GI < 10%)	10.99%	– (– means GI < 10%)	– (– means GI < 10%)	14.58%	– (– means GI < 10%)	11.8%	12.12%	– (– means GI < 10%)	12.02%	16.35%	– (– means GI < 10%)	– (– means GI < 10%)	12.12%	23.58%	19.01%	GI% at 10^−5 M [4]: 29.33%; GI% at 10^−5 M [23]: – (– means GI < 10%); melting point: 165 to 167 °C
O=c1c2ccccc2nc(COc2ccccc2)n1NS(=O)(=O)c1ccccc1 [Compound 5a, N-(4-oxo-2-(phenoxymethyl)quinazolin-3(4H)-yl)benzenesulfonamide]	– (– means GI < 10%)	– (– means GI < 10%)	– (– means GI < 10%)	– (– means GI < 10%)	– (– means GI < 10%)	– (– means GI < 10%)	– (– means GI < 10%)	– (– means GI < 10%)	– (– means GI < 10%)	– (– means GI < 10%)	– (– means GI < 10%)	– (– means GI < 10%)	– (– means GI < 10%)	– (– means GI < 10%)	– (– means GI < 10%)	– (– means GI < 10%)	– (– means GI < 10%)	16.59%	15.07%	15.21%	GI% at 10^−5 M [4]: 10.25%; GI% at 10^−5 M [12]: 18.13%; GI% at 10^−5 M [23]: – (– means GI < 10%); melting point: 114 to 116 °C
Cc1ccc(S(=O)(=O)Nn2c(COc3ccccc3)nc3ccccc3c2=O)cc1 [Compound 5b, 4-methyl-N-(4-oxo-2-(phenoxymethyl)quinazolin-3(4H)-yl)benzenesulfonamide]	– (– means GI < 10%)	– (– means GI < 10%)	– (– means GI < 10%)	– (– means GI < 10%)	– (– means GI < 10%)	– (– means GI < 10%)	– (– means GI < 10%)	– (– means GI < 10%)	– (– means GI < 10%)	10.27%	– (– means GI < 10%)	– (– means GI < 10%)	– (– means GI < 10%)	– (– means GI < 10%)	– (– means GI < 10%)	– (– means GI < 10%)	– (– means GI < 10%)	11.16%	– (– means GI < 10%)	13.18%	GI% at 10^−5 M [4]: 10.82%; GI% at 10^−5 M [12]: 10.74%; GI% at 10^−5 M [23]: – (– means GI < 10%); melting point: 140 to 142 °C
O=c1c2ccccc2nc(COc2ccccc2)n1NS(=O)(=O)c1ccc(Cl)cc1 [Compound 5c, 4-chloro-N-(4-oxo-2-(phenoxymethyl)quinazolin-3(4H)-yl)benzenesulfonamide]	– (– means GI < 10%)	– (– means GI < 10%)	24.96%	13.14%	– (– means GI < 10%)	26.99%	– (– means GI < 10%)	– (– means GI < 10%)	23.06%	– (– means GI < 10%)	– (– means GI < 10%)	– (– means GI < 10%)	11.40%	17.90%	36.68%	– (– means GI < 10%)	– (– means GI < 10%)	25.00%	26.93%	25.19%	GI% at 10^−5 M [12]: 37.25%; GI% at 10^−5 M [23]: 25.29%; melting point: 208 to 210 °C
